Patent publication US20040214238A1 (priority 2003, published 2004)
“And” between values parts separate entries of the source, which are not always exact repeats. Identical values can stand only once.

What was measured:
[1] = system: N-type calcium current in neurons of the dorsal root ganglia; format: cell-based, rat
CaV1.3 L-type channels = conditions: cited from earlier work
[2] = molecular target: vanilloid receptor (VR1) in DRG neurons (Rattus norvegicus, UniProt O35433); experiment: capsaicin screening by whole cell voltage clamp at -60 mV; conditions: 2 μM capsaicin, 128 responsive neurons
Description: Viable neurons were identified using whole cell voltage clamp recordings based on the presence of robust voltage-gated sodium and potassium currents. Neurons were then exposed to 2 μM capsaicin (Sigma). After exposure, the bath was washed and the cell allowed to recover. Capsaicin-responsive cells had to recover after wash to be included. Capsaicin-non-responsive neurons were expose at least twice to capsaicin before the cell was collected and counted as capsaicin-non-responsive. Coverslips in the study were limited to two exposures of capsaicin to avoid desensitization. 1-2 MΩ microelectrodes were filled with an internal solution consisting of 90 mM KCl, 10 mM NaCl, 5 mM MgCl2, 40 mM HEPES, 5 mM EGTA and the pH was adjusted to 7.4 with KOH. The bath solution contained 140 mM NaCl, 5 mM KCl, 2 mM CaCl2, 0.5 mM MgCl2, 10 mM HEPES, and 15 mM Dextrose. […]
Viable neurons were identified by the presence of robust voltage-gated sodium and potassium currents during brief depolarizations from a holding potential of −80 mV. […] Capsaicin-non-responsive neurons were exposed to capsaicin at least twice before the cell was harvested and counted as capsaicin-non-responsive. […] For capsaicin screening, currents were recorded using 1-2 MΩ microelectrodes filled with an internal solution consisting of 90 mM KCl, 10 mM NaCl, 5 mM MgCl2 40 mM HEPES, and 5 mM EGTA adjusted to a pH of 7.4 with KOH. […]

N-type calcium channel = conditions: in vivo; cited from earlier work

Sequence of vanilloid receptor (VR1) in DRG neurons (O35433 whole entry): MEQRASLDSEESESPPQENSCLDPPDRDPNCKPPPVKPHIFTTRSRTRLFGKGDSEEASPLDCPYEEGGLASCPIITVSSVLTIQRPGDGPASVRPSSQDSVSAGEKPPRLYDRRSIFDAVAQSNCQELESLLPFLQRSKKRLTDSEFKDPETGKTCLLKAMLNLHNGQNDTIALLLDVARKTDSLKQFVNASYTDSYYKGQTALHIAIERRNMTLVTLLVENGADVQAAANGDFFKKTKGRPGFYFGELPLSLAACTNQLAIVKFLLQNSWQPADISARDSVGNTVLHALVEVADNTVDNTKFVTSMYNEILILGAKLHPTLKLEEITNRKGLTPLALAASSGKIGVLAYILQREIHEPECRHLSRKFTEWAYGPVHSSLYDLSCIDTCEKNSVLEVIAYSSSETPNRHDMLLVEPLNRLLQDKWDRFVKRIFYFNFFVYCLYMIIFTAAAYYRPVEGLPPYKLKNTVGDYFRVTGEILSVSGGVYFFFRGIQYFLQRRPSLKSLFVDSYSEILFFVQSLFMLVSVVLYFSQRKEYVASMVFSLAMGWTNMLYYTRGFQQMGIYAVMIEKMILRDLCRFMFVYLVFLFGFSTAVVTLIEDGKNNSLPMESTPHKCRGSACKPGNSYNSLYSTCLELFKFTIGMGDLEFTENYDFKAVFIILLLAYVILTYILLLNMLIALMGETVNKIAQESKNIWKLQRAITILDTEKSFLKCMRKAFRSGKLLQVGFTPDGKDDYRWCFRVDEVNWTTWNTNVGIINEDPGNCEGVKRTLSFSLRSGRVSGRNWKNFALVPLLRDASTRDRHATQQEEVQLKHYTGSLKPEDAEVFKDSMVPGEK

## ω-conotoxin GVIA (CKSPGSSCSPTSYNCCRSCNPYTKRCY) [ω-Ctx GVIA]
[1]
  ω-Ctx GVIA-sensitive current as % of the total whole cell calcium current: 71±2% and 68±2%
  ω-Ctx GVIA-sensitive, N-type current as component of the total Ca current: ~70%
CaV1.3 L-type channels
  effect on CaV1.3 L-type current: inhibited by high concentrations
  effect on neuronal CaV1.3 L-type channels: not ω-Ctx GVIA-sensitive

## COc1cc(CNC(=O)CCCC/C=C/C(C)C)ccc1O [capsaicin]
[2]
  average amplitude of capsaicin-induced inward current: 986±118 pA

## CSCC[C@@H]1NC(=O)[C@H](CC(C)C)NC(=O)[C@H](CCCNC(=N)N)NC(=O)[C@H](CO)NC(=O)[C@@H]2CSSC[C@@H]3NC(=O)[C@H](CO)NC(=O)CNC(=O)[C@H]([C@@H](C)O)NC(=O)[C@H](CSSC[C@H](N)C(=O)N[C@@H](CCCCN)C(=O)NCC(=O)N[C@@H](CCCCN)C(=O)NCC(=O)N[C@@H](C)C(=O)N[C@@H](CCCCN)C(=O)N2)NC(=O)[C@H](CSSC[C@@H](C(N)=O)NC(=O)[C@H](CCCCN)NC(=O)CNC(=O)[C@H](CO)NC(=O)[C@H](CCCNC(=N)N)NC3=O)NC(=O)[C@H](CC(=O)O)NC(=O)[C@H](Cc2ccc(O)cc2)NC1=O [MVIIA]
N-type calcium channel
  analgesic activity: powerful analgesic
  side effects as analgesic: undesirable side effects
